Experimental data reported in ChEMBL document CHEMBL5096161, “Medulloblastoma drugs in development: Current leads, trials and drawbacks” (Eur J Med Chem, 2021).

Assays:
Mus musculus = test: Antitumor activity in Ptch+/- p53-/- mutant mouse medulloblastoma allograft model assessed as increase in survival rate at 50 mg/kg, po QD relative to control (Rvb=75 days); assay type: functional
[1] = target: Vascular endothelial growth factor receptor 2 (Homo sapiens, UniProt P35968); test: Inhibition of human VEGFR2 (789 to 1356 residues) assessed as reduction in autophosphorylation at Y1175 residues using poly (Glu4Tyr1) peptide and ATP as substrate incubated for 60 mins by ADP-Glo Kinase Assay
Chain of Vascular endothelial growth factor receptor 2 (P35968 whole entry, the tested form may be a part): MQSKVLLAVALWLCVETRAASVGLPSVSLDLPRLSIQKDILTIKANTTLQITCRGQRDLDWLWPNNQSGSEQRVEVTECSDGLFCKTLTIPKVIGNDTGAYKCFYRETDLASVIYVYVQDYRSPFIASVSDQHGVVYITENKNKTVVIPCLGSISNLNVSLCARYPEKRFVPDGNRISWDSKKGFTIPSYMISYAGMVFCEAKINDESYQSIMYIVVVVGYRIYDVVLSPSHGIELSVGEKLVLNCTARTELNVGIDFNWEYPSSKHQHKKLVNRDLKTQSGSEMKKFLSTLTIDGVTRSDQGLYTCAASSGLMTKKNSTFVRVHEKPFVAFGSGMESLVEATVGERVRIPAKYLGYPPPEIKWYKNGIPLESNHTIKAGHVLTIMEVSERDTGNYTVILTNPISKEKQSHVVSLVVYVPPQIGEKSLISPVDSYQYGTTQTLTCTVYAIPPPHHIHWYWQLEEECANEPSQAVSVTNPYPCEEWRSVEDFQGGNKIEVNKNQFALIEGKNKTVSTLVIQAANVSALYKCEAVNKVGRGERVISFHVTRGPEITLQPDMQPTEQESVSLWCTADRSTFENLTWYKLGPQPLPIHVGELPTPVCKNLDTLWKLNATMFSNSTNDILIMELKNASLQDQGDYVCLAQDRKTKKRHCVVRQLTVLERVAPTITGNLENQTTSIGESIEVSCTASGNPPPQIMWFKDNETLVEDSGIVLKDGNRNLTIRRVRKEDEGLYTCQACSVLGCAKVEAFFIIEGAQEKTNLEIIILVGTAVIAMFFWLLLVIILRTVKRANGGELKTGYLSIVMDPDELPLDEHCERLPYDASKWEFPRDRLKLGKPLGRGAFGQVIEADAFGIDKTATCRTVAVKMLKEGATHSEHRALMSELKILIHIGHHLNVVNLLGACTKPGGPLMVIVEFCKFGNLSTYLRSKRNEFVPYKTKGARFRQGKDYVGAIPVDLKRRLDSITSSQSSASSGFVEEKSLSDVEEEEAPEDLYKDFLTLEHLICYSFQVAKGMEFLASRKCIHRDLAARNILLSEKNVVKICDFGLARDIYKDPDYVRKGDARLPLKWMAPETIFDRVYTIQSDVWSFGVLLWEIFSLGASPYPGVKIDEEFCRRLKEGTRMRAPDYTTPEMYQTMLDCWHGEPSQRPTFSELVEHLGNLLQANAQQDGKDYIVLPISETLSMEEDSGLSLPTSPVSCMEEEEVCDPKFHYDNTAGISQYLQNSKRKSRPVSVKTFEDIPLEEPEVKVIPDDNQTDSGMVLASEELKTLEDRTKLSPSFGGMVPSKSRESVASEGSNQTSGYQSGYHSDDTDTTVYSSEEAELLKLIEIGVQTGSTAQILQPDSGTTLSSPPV

[2] = Antitumor activity against human D425 Med cells assessed as reduction in cell viability incubated for 24 hrs by Alamar blue assay; assay type: functional, cell-based
[3] = Antitumor activity against human D341 Med cells assessed as reduction in cell viability incubated for 24 hrs by Alamar blue assay; assay type: functional, cell-based
[4] = Antitumor activity against human D384 Med cells assessed as reduction in cell viability incubated for 24 hrs by Alamar blue assay; assay type: functional, cell-based
[5] = Anticancer activity against human MED-MEB-8A cells assessed as reduction in cell viability incubated for 72 hrs; assay type: functional, cell-based
D283 Med = test: Anticancer activity against human D283 Med cells assessed as reduction in cell viability incubated for 72 hrs; assay type: functional, cell-based

## COC(=O)Nc1nc2cc(C(=O)c3ccccc3)ccc2[nH]1 [MEBENDAZOLE]
Mus musculus
  MST: 113 days
[1]
  IC50: 4.3 µM

## CCCCCCCCc1ccc(CCC(N)(CO)CO)cc1 [FINGOLIMOD]
[2]
  IC50: 7.5 µM
[3]
  IC50: 5.5 µM
[4]
  IC50: 7.3 µM

## C[C@H]1O[C@@H](O[C@H]2[C@@H](O)C[C@H](O[C@H]3[C@@H](O)C[C@H](O[C@H]4CC[C@@]5(C)[C@H](CC[C@@H]6[C@@H]5C[C@@H](O)[C@]5(C)[C@@H](C7=CC(=O)OC7)CC[C@]65O)C4)O[C@@H]3C)O[C@@H]2C)C[C@H](O)[C@@H]1O [DIGOXIN]
[5]
  IC50: 0.106 µM
D283 Med
  IC50: 0.01 µM
